Bounds are passed on as bounds.

Test [1] concerns L6-myotubes. The test can be described thus: Glucose uptake in differentiated L6-myotubes (Biological Example 2). The test is classed as cell-based. The conditions noted are these: glucose uptake, compound at 10 μM relative to isoproterenol at 10 μM; for Emax at 10 µM: read-out: Biological example 2 (GU). The essentials: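 Differentiated L6 myotubes were serum-starved overnight in 0.5% fatty-acid-free BSA and then stimulated with compound or isoprenaline at 1×10^−5 M final. After 1 h 40 min cells were washed and re-dosed in glucose-free medium. Twenty minutes later, uptake of 50 nM ^3H-2-deoxyglucose over 10 min was measured by scintillation counting of NaOH lysates.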

Test [2] relates to L6-myotubes. Description: Measurement of intracellular cAMP levels in differentiated L6-myotubes (Biological Example 3). The test is classed as cell-based. The conditions noted are these: intracellular cAMP, compound at 10 μM relative to isoproterenol at 10 μM; for Emax at 10 µM: 0.25 h. The essentials:
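Serum-starved differentiated L6 myotubes stimulated 15 min with test compound at 1×10^−5 M final (isoprenaline as reference) in HBSS with 1% BSA, 5 mM HEPES, 1 mM IBMX, pH 7.4. Cells EtOH-extracted, lysed, and intracellular cAMP measured by AlphaScreen.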

For the compound `CCC[C@H]1CCC[C@H]([C@H](O)c2ccc(F)cc2)N1` [Compound 92], the values for the Emax at 10 µM in test [1] and in test [2] were 25 to 50% and less than 25%, respectively.

With `CCC[C@H]1CCC[C@H]([C@H](O)c2ccccc2F)N1` [Compound 93, (R)-[(2R,6S)-6-propyl-2-piperidyl](o-fluorophenyl)methanol], the values for the Emax at 10 µM in test [1] and in test [2] were 25 to 50% and less than 25%, respectively.

In the case of `CCC[C@@H]1CCC[C@H]([C@H](O)c2ccc(F)cc2)N1` [Compound 94], the Emax at 10 µM in test [1] was 50 to 75%; in test [2] it was less than 25%.

For `CC(C)(C)NC[C@H](O)c1ccc(O)cn1` [Compound 95, 6-[(S)-2-(tert-butylamino)-1-hydroxyethyl]-3-pyridinol], the Emax at 10 µM in test [1] was 50 to 75%; in test [2] it was less than 25%.

As to `CC(C)(C)NC[C@H](O)c1ccc(F)cn1` [Compound 96, (S)-2-(tert-butylamino)-1-(5-fluoro-2-pyridyl)-1-ethanol], the Emax at 10 µM was 50 to 75% in test [1] and less than 25% in test [2].

Consider `CCC[C@@H]1CCC[C@H]([C@H](O)c2ccccc2F)N1` [Compound 97, (R)-[(2R,6R)-6-propyl-2-piperidyl](o-fluorophenyl)methanol], for which the results for the Emax at 10 µM in test [1] and in test [2] were 50 to 75% and less than 25%, respectively.

On to `Cn1ccc([C@@H](O)CNC(C)(C)C)cc1=O` [Compound 98, 4-[(R)-2-(tert-butylamino)-1-hydroxyethyl]-1-methyl-2(1H)-pyridinone], for which the Emax at 10 µM is greater than 75% in test [1] and less than 25% in test [2].

With `CC(C)(C)NC[C@H](O)c1cncc(F)c1` [Compound 99, (R)-2-(tert-butylamino)-1-(5-fluoro-3-pyridyl)-1-ethanol], the figures for the Emax at 10 µM in test [1] and in test [2] were greater than 75% and 25 to 50%, respectively.

Take `CC(C)(C)NC[C@H](O)c1cncc(O)c1` [Compound 100, 5-[(R)-2-(tert-butylamino)-1-hydroxyethyl]-3-pyridinol]: the Emax at 10 µM in test [1] was greater than 75%; in test [2], less than 25%.

Take `CC1(C)CCC[C@H]([C@@H](O)c2cccc(F)c2)N1` [Compound 101]: the values for the Emax at 10 µM in test [1] and in test [2] were 25 to 50% and less than 25%, respectively.

Consider `CC1(C)CCC[C@H]([C@H](O)c2cccc(F)c2)N1` [Compound 102], for which the results for the Emax at 10 µM in test [1] and in test [2] were 50 to 75% and less than 25%, respectively.

Consider `CC1(C)CCC[C@H]([C@@H](O)c2cccc(O)c2)N1` [Compound 103], for which the values for the Emax at 10 µM in test [1] and in test [2] were 25 to 50% and less than 25%, respectively.

On to `CC1(C)CCC[C@H]([C@H](O)c2cccc(O)c2)N1` [Compound 104, (R)-[(R)-6,6-dimethyl-2-piperidyl](m-hydroxyphenyl)methanol], for which the Emax at 10 µM is 25 to 50% in test [1] and less than 25% in test [2].

As to `CCC[C@H]1CCC[C@H]([C@@H](O)c2ccc(F)cc2)N1` [Compound 105], the Emax at 10 µM is 25 to 50% in test [1] and less than 25% in test [2].

As to `CCC[C@H]1CCC[C@H]([C@@H](O)c2ccccc2F)N1` [Compound 106, (S)-[(2R,6S)-6-propyl-2-piperidyl](o-fluorophenyl)methanol], the figures for the Emax at 10 µM in test [1] and in test [2] were 25 to 50% and less than 25%, respectively.

On to `CCC[C@@H]1CCC[C@H]([C@@H](O)c2ccccc2F)N1` [Compound 107, (S)-[(2R,6R)-6-propyl-2-piperidyl](o-fluorophenyl)methanol], for which the Emax at 10 µM in test [1] is 25 to 50%; in test [2], less than 25%.

On to `CC(C)(C)NC[C@H](O)c1ccncc1F` [Compound 108, (R)-2-(tert-butylamino)-1-(3-fluoro-4-pyridyl)-1-ethanol], for which the Emax at 10 µM in test [1] is 25 to 50%; in test [2] it was less than 25%.

For the compound `CC1(C)CC[C@H]([C@@H](O)c2cccc(F)c2)N1` [Compound 109, (S)-[(R)-5,5-dimethyl-2-pyrrolidinyl](m-fluorophenyl)methanol], the Emax at 10 µM in test [1] was 25 to 50%; in test [2], less than 25%.

`CC1(C)CC[C@H]([C@H](O)c2cccc(F)c2)N1` [Compound 110]: the results for the Emax at 10 µM in test [1] and in test [2] were greater than 75% and less than 25%, respectively.

With `CC1(C)CC[C@H]([C@@H](O)c2cccc(O)c2)N1` [Compound 111, m-{(S)-[(R)-5,5-dimethyl-2-pyrrolidinyl] hydroxymethyl}phenol], the Emax at 10 µM in test [1] is 50 to 75%; in test [2] it was less than 25%.

With `CC1(C)CC[C@H]([C@H](O)c2cccc(O)c2)N1` [Compound 112, m-{(R)-[(R)-5,5-dimethyl-2-pyrrolidinyl] hydroxymethyl}phenol], the Emax at 10 µM is greater than 75% in test [1] and less than 25% in test [2].

As for `CCC[C@@H]1CCC[C@@H]([C@@H](O)c2cccc(O)c2)N1` [Compound 113], the Emax at 10 µM in test [1] is 50 to 75%; in test [2], less than 25%.

As to `CCC[C@@H]1CCC[C@@H]([C@@H](O)c2cccc(Cl)c2)N1` [Compound 114], the results for the Emax at 10 µM in test [1] and in test [2] were 25 to 50% and less than 25%, respectively.

Regarding `CCC[C@@H]1CCC[C@@H]([C@H](O)c2cccc(Cl)c2)N1` [Compound 115], the Emax at 10 µM in test [1] was greater than 75%; in test [2], less than 25%.

Take `CCC[C@@H]1CCC[C@@H]([C@H](O)c2cccc(F)c2)N1` [Compound 116]: the Emax at 10 µM is 25 to 50% in test [1] and less than 25% in test [2].

For `CC(C)(C)CNC[C@H](O)c1cccc(F)c1` [Compound 117, (R)-1-(m-fluorophenyl)-2-(neopentylamino)-1-ethanol], the Emax at 10 µM in test [1] is 25 to 50%; in test [2], less than 25%.

With `O[C@@H](CNC1(C(F)(F)F)CC1)c1cccc(F)c1` [Compound 118, (R)-1-(m-fluorophenyl)-2-[1-(trifluoromethyl)cyclopropylamino]-1-ethanol], the Emax at 10 µM in test [1] was 50 to 75%; in test [2] it was less than 25%.

`CCC[C@H]1CCC[C@@H]([C@@H](O)c2cccc(F)c2)N1` [Compound 119]: the Emax at 10 µM is 25 to 50% in test [1] and less than 25% in test [2].

As for `CCC[C@H]1CCC[C@@H]([C@H](O)c2cccc(F)c2)N1` [Compound 120], the results for the Emax at 10 µM in test [1] and in test [2] were 50 to 75% and less than 25%, respectively.

As for `CCC[C@H]1CCC[C@@H]([C@@H](O)c2cccc(O)c2)N1` [Compound 121], the Emax at 10 µM in test [1] was greater than 75%; in test [2], less than 25%.

Regarding `CCC[C@H]1CCC[C@@H]([C@H](O)c2cccc(O)c2)N1` [Compound 122], the Emax at 10 µM in test [1] is 50 to 75%; in test [2], less than 25%.

For `CCC[C@H]1CCC[C@@H]([C@H](O)c2cccc(Cl)c2)N1` [Compound 123], the Emax at 10 µM is 25 to 50% in test [1] and less than 25% in test [2].

On to `CCC[C@H]1CC[C@H]([C@H](O)c2cccc(F)c2)N1` [Compound 124, (R)-[(2R,5S)-5-propyl-2-pyrrolidinyl](m-fluorophenyl)methanol], for which the Emax at 10 µM in test [1] was 50 to 75%; in test [2] it was less than 25%.

Consider `CCC[C@H]1CC[C@H]([C@H](O)c2cccc(O)c2)N1` [Compound 125, m-{(R)-[(2R,5S)-5-propyl-2-pyrrolidinyl] hydroxymethyl}phenol], for which the Emax at 10 µM was 50 to 75% in test [1] and less than 25% in test [2].

As for `CCC[C@@H]1CC[C@H]([C@@H](O)c2cccc(F)c2)N1` [Compound 126], the Emax at 10 µM in test [1] was 25 to 50%; in test [2], less than 25%.

`CCC[C@@H]1CC[C@H]([C@@H](O)c2cccc(O)c2)N1` [Compound 127, m-{(S)-[(2R,5R)-5-propyl-2-pyrrolidinyl] hydroxymethyl}phenol]: in test [1], the “Biological example 2 (GU)” value is “+ (if it is between 50 and 25% it is denoted with +)”. For the same compound, the “Biological example 3 (CAMP)” value in test [2] was “− (if it less than 25% it is denoted with −)”.

Regarding `CCC[C@H]1CCC[C@H]([C@@H](O)c2cccc(Cl)c2)N1` [Compound 128], the Emax at 10 µM in test [1] was 25 to 50%; in test [2], less than 25%.

Turning to `CCC[C@H]1CC[C@@H]([C@H](O)c2cccc(F)c2)N1` [Compound 130, (R)-[(2S,5S)-5-propyl-2-pyrrolidinyl](m-fluorophenyl)methanol], the figures for the Emax at 10 µM in test [1] and in test [2] were 25 to 50% and less than 25%, respectively.

Regarding `CCC[C@H]1CC[C@@H]([C@@H](O)c2cccc(F)c2)N1` [Compound 131, (S)-[(2S,5S)-5-propyl-2-pyrrolidinyl](m-fluorophenyl)methanol], the Emax at 10 µM in test [1] was 50 to 75%; in test [2], less than 25%.

As to `CCC[C@@H]1CC[C@@H]([C@H](O)c2cccc(F)c2)N1` [Compound 132, (R)-[(2S,5R)-5-propyl-2-pyrrolidinyl](m-fluorophenyl)methanol], the Emax at 10 µM in test [1] was 25 to 50%; in test [2] it was less than 25%.

On to `CCC[C@@H]1CC[C@@H]([C@@H](O)c2cccc(F)c2)N1` [Compound 133, (S)-[(2,5R)-5-propyl-2-pyrrolidinyl](m-fluorophenyl)methanol], for which the Emax at 10 µM in test [1] was 50 to 75%; in test [2] it was less than 25%.

On to `CC(C)(C)NCC(O)c1ccncc1O` (centres unmarked) [Compound 134, 4-[2-(tert-butylamino)-1-hydroxyethyl]-3-pyridinol], for which the Emax at 10 µM in test [1] is greater than 75%; in test [2], less than 25%.

Consider `CCC[C@H]1CCC[C@H]([C@H](O)c2ccccc2Cl)N1` [Compound 135, (R)-[(2R,6S)-6-propyl-2-piperidyl](o-chlorophenyl)methanol], for which the Emax at 10 µM in test [1] was 25 to 50%; in test [2], less than 25%.

For the origin of these results see patent US20260216294A1, “BETA 2-ADRENERGIC RECEPTOR AGONISTS FOR TREATMENT OR PREVENTION OF MUSCLE WASTING” (ATROGI AB, priority 2023, published 2026).
